Assay results: ChEMBL document CHEMBL1201862, “PubChem BioAssay data set” (2004)
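Assay format: 96-well plates, 48-hour exposure. GI50 marks 50% less growth.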 The source made the active and inactive calls. No stated cut-off is given here; in the data, active = GI50 up to about 1.1 µM and inactive = higher.

Assays:
Assay in all cases: NCI tumour cell line growth inhibition, 48 h
Malme-3M = test system: Malme-3M
RPMI-8226 = test system: RPMI-8226
NCI-H460 = test system: NCI-H460
CAKI-1 = test system: CAKI-1
HOP-92 = test system: HOP-92
NCI-H226 = test system: NCI-H226
HCC 2998 = test system: HCC 2998
SNB-19 = test system: SNB-19
COLO 205 = test system: COLO 205
UACC-257 = test system: UACC-257
HOP-62 = test system: HOP-62
SR = test system: SR
M14 = test system: M14
SF-295 = test system: SF-295
IGROV-1 = test system: IGROV-1
SK-MEL-2 = test system: SK-MEL-2
UO-31 = test system: UO-31
A549 = test system: A549
HCT-116 = test system: HCT-116

## Cc1cc(C)nc(NS(=O)(=O)c2ccc(Nc3c4ccccc4nc4c(C(=O)N5CCN(CCOS(C)(=O)=O)CC5)ccc(Cl)c34)cc2)n1
Malme-3M
  GI50: > 100 µM (inactive)
RPMI-8226
  GI50: > 100 µM (inactive)
NCI-H460
  GI50: > 100 µM (inactive)
CAKI-1
  GI50: > 100 µM (inactive)
HOP-92
  GI50: > 100 µM (inactive)
NCI-H226
  GI50: > 100 µM (inactive)
HCC 2998
  GI50: > 100 µM (inactive)
SNB-19
  GI50: > 100 µM (inactive)
COLO 205
  GI50: > 100 µM (inactive)
UACC-257
  GI50: > 100 µM (inactive)
HOP-62
  GI50: > 100 µM (inactive)
SR
  GI50: > 100 µM (inactive)
M14
  GI50: 38 µM (inactive)
SF-295
  GI50: > 100 µM (inactive)
IGROV-1
  GI50: > 100 µM (inactive)
SK-MEL-2
  GI50: > 100 µM (inactive)
UO-31
  GI50: > 100 µM (inactive)
A549
  GI50: > 100 µM (inactive)
HCT-116
  GI50: > 100 µM (inactive)

## Cn1c2c([N+](=O)[O-])[se]nc2c(=O)n1-c1ccc([N+](=O)[O-])cc1
Malme-3M
  GI50: 1.75 µM (inactive)
RPMI-8226
  GI50: 1.82 µM (inactive)
NCI-H460
  GI50: 2.31 µM (inactive)
CAKI-1
  GI50: 1.94 µM (inactive)
HOP-92
  GI50: 1.63 µM (inactive)
NCI-H226
  GI50: 2.96 µM (inactive)
HCC 2998
  GI50: 1.74 µM (inactive)
SNB-19
  GI50: 6.01 µM (inactive)
COLO 205
  GI50: 1.67 µM (inactive)
UACC-257
  GI50: 1.96 µM (inactive)
HOP-62
  GI50: 3.97 µM (inactive)
SR
  GI50: 0.0474 µM (active)
M14
  GI50: 1.29 µM (inactive)
SF-295
  GI50: 3.13 µM (inactive)
IGROV-1
  GI50: 1.29 µM (inactive)
SK-MEL-2
  GI50: 3.34 µM (inactive)
UO-31
  GI50: 1.91 µM (inactive)
A549
  GI50: 7.24 µM (inactive)
HCT-116
  GI50: 0.887 µM (active)

## C[C@@]12CC[C@H]3[C@@H]4CCC(=O)N[C@@]4(C)CC[C@@H]3[C@@]1(C)CC[C@H](OC(=O)Cc1ccc(N(CCCl)CCCl)cc1)C2
Malme-3M
  GI50: 19.5 µM (inactive)
RPMI-8226
  GI50: 18.4 µM (inactive)
NCI-H460
  GI50: 13.7 µM (inactive)
CAKI-1
  GI50: 16.5 µM (inactive)
HOP-92
  GI50: 19 µM (inactive)
NCI-H226
  GI50: 17.2 µM (inactive)
HCC 2998
  GI50: 16.3 µM (inactive)
SNB-19
  GI50: > 10 µM (inactive)
COLO 205
  GI50: 20.4 µM (inactive)
UACC-257
  GI50: 24.8 µM (inactive)
HOP-62
  GI50: 16.8 µM (inactive)
SF-295
  GI50: 17.5 µM (inactive)
IGROV-1
  GI50: 16.2 µM (inactive)
SK-MEL-2
  GI50: 51.1 µM (inactive)
UO-31
  GI50: 17.8 µM (inactive)
A549
  GI50: 15.7 µM (inactive)
HCT-116
  GI50: 16.4 µM (inactive)

## CCCc1onc(CCC(=O)N(Cc2ccccc2)Cc2ccccc2)c1CC
Malme-3M
  GI50: > 100 µM (inactive)
RPMI-8226
  GI50: > 100 µM (inactive)
NCI-H460
  GI50: > 100 µM (inactive)
CAKI-1
  GI50: > 100 µM (inactive)
HOP-92
  GI50: 48.8 µM (inactive)
HCC 2998
  GI50: > 100 µM (inactive)
COLO 205
  GI50: > 100 µM (inactive)
UACC-257
  GI50: > 100 µM (inactive)
HOP-62
  GI50: > 100 µM (inactive)
M14
  GI50: > 100 µM (inactive)
SF-295
  GI50: > 100 µM (inactive)
IGROV-1
  GI50: > 100 µM (inactive)
SK-MEL-2
  GI50: > 100 µM (inactive)

## COc1cc(CCc2ccc(OCCN(C)C)cc2)cc(OC)c1OC
Malme-3M
  GI50: 93.3 µM (inactive)
RPMI-8226
  GI50: 28.6 µM (inactive)
NCI-H460
  GI50: > 100 µM (inactive)
CAKI-1
  GI50: > 100 µM (inactive)
HOP-92
  GI50: 52.4 µM (inactive)
NCI-H226
  GI50: 79.6 µM (inactive)
SNB-19
  GI50: > 100 µM (inactive)
COLO 205
  GI50: 20.3 µM (inactive)
UACC-257
  GI50: 72.4 µM (inactive)
HOP-62
  GI50: 84.1 µM (inactive)
SR
  GI50: 49.8 µM (inactive)
M14
  GI50: 68.4 µM (inactive)
SF-295
  GI50: > 100 µM (inactive)
IGROV-1
  GI50: > 100 µM (inactive)
UO-31
  GI50: 49.9 µM (inactive)
A549
  GI50: > 100 µM (inactive)
HCT-116
  GI50: 60.4 µM (inactive)

## C/C(=C/C(=O)N(C)c1ccccc1Cl)O[Si](C(C)C)(C(C)C)C(C)C
Malme-3M
  GI50: 23.9 µM (inactive)
RPMI-8226
  GI50: 24.8 µM (inactive)
NCI-H460
  GI50: 26.9 µM (inactive)
CAKI-1
  GI50: 40.7 µM (inactive)
HOP-92
  GI50: 16.1 µM (inactive)
NCI-H226
  GI50: 15.8 µM (inactive)
SNB-19
  GI50: 23.7 µM (inactive)
COLO 205
  GI50: 16.8 µM (inactive)
UACC-257
  GI50: 24.8 µM (inactive)
HOP-62
  GI50: 26.8 µM (inactive)
M14
  GI50: 27.5 µM (inactive)
SF-295
  GI50: 21.8 µM (inactive)
IGROV-1
  GI50: 23.1 µM (inactive)
UO-31
  GI50: 19.9 µM (inactive)
A549
  GI50: 36.1 µM (inactive)
HCT-116
  GI50: 17.8 µM (inactive)

## CCCCCCCCCCCC1CCCC(C)N1 (centres undefined)
Malme-3M
  GI50: 90.4 µM (inactive)
RPMI-8226
  GI50: 23.2 µM (inactive)
NCI-H460
  GI50: 45.1 µM (inactive)
CAKI-1
  GI50: 43.2 µM (inactive)
HOP-92
  GI50: 17.7 µM (inactive)
NCI-H226
  GI50: 76.9 µM (inactive)
HCC 2998
  GI50: 46.3 µM (inactive)
SNB-19
  GI50: 76.2 µM (inactive)
COLO 205
  GI50: 36 µM (inactive)
UACC-257
  GI50: 45.8 µM (inactive)
HOP-62
  GI50: 43.3 µM (inactive)
SF-295
  GI50: 77.8 µM (inactive)
IGROV-1
  GI50: 61.2 µM (inactive)
SK-MEL-2
  GI50: 72.1 µM (inactive)
UO-31
  GI50: 41 µM (inactive)
A549
  GI50: 88.7 µM (inactive)
HCT-116
  GI50: 36.8 µM (inactive)

## Cc1cc(N(CCC#N)CCC#N)ccc1/C=C(\NC(=O)/C=C/c1ccccc1)NC(=O)Nc1ccccc1C
Malme-3M
  GI50: > 100 µM (inactive)
RPMI-8226
  GI50: > 100 µM (inactive)
NCI-H460
  GI50: 76.2 µM (inactive)
CAKI-1
  GI50: 69.7 µM (inactive)
HOP-92
  GI50: 23.4 µM (inactive)
NCI-H226
  GI50: 22.6 µM (inactive)
HCC 2998
  GI50: > 100 µM (inactive)
SNB-19
  GI50: 32.7 µM (inactive)
COLO 205
  GI50: > 100 µM (inactive)
UACC-257
  GI50: > 100 µM (inactive)
M14
  GI50: > 100 µM (inactive)
SF-295
  GI50: 25.4 µM (inactive)
IGROV-1
  GI50: 68.4 µM (inactive)
SK-MEL-2
  GI50: 38.7 µM (inactive)
UO-31
  GI50: > 100 µM (inactive)
A549
  GI50: > 100 µM (inactive)
HCT-116
  GI50: > 100 µM (inactive)

## CC1=C(Oc2ccccc2)C(CCC(=O)O)c2c(O)cc(Cl)c(O)c21 (centres undefined)
RPMI-8226
  GI50: > 100 µM (inactive)
NCI-H460
  GI50: > 100 µM (inactive)
CAKI-1
  GI50: > 100 µM (inactive)
HOP-92
  GI50: > 100 µM (inactive)
HCC 2998
  GI50: > 100 µM (inactive)
SNB-19
  GI50: > 100 µM (inactive)
COLO 205
  GI50: > 100 µM (inactive)
UACC-257
  GI50: > 100 µM (inactive)
HOP-62
  GI50: > 100 µM (inactive)
SR
  GI50: > 100 µM (inactive)
M14
  GI50: > 100 µM (inactive)
SF-295
  GI50: > 100 µM (inactive)
IGROV-1
  GI50: > 100 µM (inactive)
SK-MEL-2
  GI50: > 100 µM (inactive)
UO-31
  GI50: > 100 µM (inactive)
A549
  GI50: > 100 µM (inactive)
HCT-116
  GI50: > 100 µM (inactive)

## O=C(Cc1ccccc1)NN1C(=O)C(Cl)C1c1ccccc1 (centres undefined)
Malme-3M
  GI50: > 100 µM (inactive)
RPMI-8226
  GI50: 18.7 µM (inactive)
NCI-H460
  GI50: > 100 µM (inactive)
CAKI-1
  GI50: > 100 µM (inactive)
NCI-H226
  GI50: > 100 µM (inactive)
HCC 2998
  GI50: > 100 µM (inactive)
SNB-19
  GI50: > 100 µM (inactive)
COLO 205
  GI50: > 100 µM (inactive)
UACC-257
  GI50: > 100 µM (inactive)
HOP-62
  GI50: > 100 µM (inactive)
SR
  GI50: 18.3 µM (inactive)
M14
  GI50: > 100 µM (inactive)
SF-295
  GI50: > 100 µM (inactive)
IGROV-1
  GI50: 66.4 µM (inactive)
SK-MEL-2
  GI50: > 100 µM (inactive)
UO-31
  GI50: 88.7 µM (inactive)
A549
  GI50: > 100 µM (inactive)
HCT-116
  GI50: > 100 µM (inactive)

## O=C(O)CCC(=O)N1c2ccccc2CC1c1c[nH]c2ccccc12 (centres undefined)
Malme-3M
  GI50: > 100 µM (inactive)
RPMI-8226
  GI50: > 100 µM (inactive)
NCI-H460
  GI50: > 100 µM (inactive)
CAKI-1
  GI50: > 100 µM (inactive)
HOP-92
  GI50: > 100 µM (inactive)
NCI-H226
  GI50: > 100 µM (inactive)
HCC 2998
  GI50: > 100 µM (inactive)
SNB-19
  GI50: > 100 µM (inactive)
COLO 205
  GI50: > 100 µM (inactive)
UACC-257
  GI50: > 100 µM (inactive)
HOP-62
  GI50: > 100 µM (inactive)
M14
  GI50: > 100 µM (inactive)
SF-295
  GI50: > 100 µM (inactive)
IGROV-1
  GI50: > 100 µM (inactive)
SK-MEL-2
  GI50: > 100 µM (inactive)
UO-31
  GI50: 33.2 µM (inactive)
A549
  GI50: > 100 µM (inactive)
HCT-116
  GI50: > 100 µM (inactive)

## CCCCCCCCCCCCCCCCNCCCN(C)CCCN
RPMI-8226
  GI50: 20.2 µM (inactive)
NCI-H460
  GI50: 17.7 µM (inactive)
CAKI-1
  GI50: 18.1 µM (inactive)
NCI-H226
  GI50: 19.8 µM (inactive)
HCC 2998
  GI50: 18.3 µM (inactive)
SNB-19
  GI50: 17.1 µM (inactive)
COLO 205
  GI50: 22.1 µM (inactive)
UACC-257
  GI50: 22 µM (inactive)
SR
  GI50: 21 µM (inactive)
M14
  GI50: 17.1 µM (inactive)
SF-295
  GI50: 17.9 µM (inactive)
IGROV-1
  GI50: 20.3 µM (inactive)
SK-MEL-2
  GI50: 20.8 µM (inactive)
UO-31
  GI50: 17.3 µM (inactive)
A549
  GI50: 16.7 µM (inactive)
HCT-116
  GI50: 18.7 µM (inactive)
